Data taken from ChEMBL document CHEMBL1201861, “Genomics of Drug Sensitity in Cancer screening data, Wellcome Trust Sanger Institute”.

Tests used:
Experiment in all cases: cells
[1] = system: M14; assay type: functional, cell-based; details: Homo sapiens;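 also: growth inhibition of M14 cells, read out with a cell viability assay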
Description: SANGER: Inhibition of human M14 cell growth in a cell viability assay.

[2] = system: PFSK-1; assay type: functional, cell-based; details: Homo sapiens;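 also: cell viability assay measuring how strongly compounds suppress growth of human PFSK-1 cells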
Description: SANGER: Inhibition of human PFSK-1 cell growth in a cell viability assay.

[3] = system: CAL-33; assay type: functional, cell-based; details: Homo sapiens;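 also: growth inhibition of CAL-33 cells, read out with a cell viability assay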
Description: SANGER: Inhibition of human CAL-33 cell growth in a cell viability assay.

[4] = system: ASPC1; assay type: functional, cell-based; details: Homo sapiens;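 also: growth inhibition of AsPC-1 cells, read out with a cell viability assay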
Description: SANGER: Inhibition of human AsPC-1 cell growth in a cell viability assay.

[5] = system: HSC-2; assay type: functional, cell-based; details: Homo sapiens;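 also: growth inhibition of human HSC-2 cells, read out by a cell viability assay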
Description: SANGER: Inhibition of human HSC-2 cell growth in a cell viability assay.

[6] = system: MKN-7; assay type: functional, cell-based; details: Homo sapiens;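 also: growth inhibition of MKN-7 cells, read out with a cell viability assay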
Description: SANGER: Inhibition of human MKN7 cell growth in a cell viability assay.

[7] = system: NCI-H441; assay type: functional, cell-based; details: Homo sapiens;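 also: growth inhibition of NCI-H441 cells, read out with a cell viability assay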
Description: SANGER: Inhibition of human NCI-H441 cell growth in a cell viability assay.

[8] = system: HT-29; assay type: functional, cell-based; details: Homo sapiens;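 also: growth inhibition of human HT-29 cells, read out by a cell viability assay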
Description: SANGER: Inhibition of human HT-29 cell growth in a cell viability assay.

[9] = system: C3A; assay type: functional, cell-based; details: Homo sapiens;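 also: growth inhibition of C3A human cells, quantified with a cell viability readout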
Description: SANGER: Inhibition of human C3A cell growth in a cell viability assay.

[10] = system: SAS; assay type: functional, cell-based; details: Homo sapiens;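 also: growth inhibition of SAS cells, read out with a cell viability assay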
Description: SANGER: Inhibition of human SAS cell growth in a cell viability assay.

[11] = system: DoTc2-4510; assay type: functional, cell-based; details: Homo sapiens
[12] = system: HuO9; assay type: functional, cell-based; details: Homo sapiens;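 also: growth inhibition of HuO9 cells, read out with a cell viability assay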
Description: SANGER: Inhibition of human HuO9 cell growth in a cell viability assay.

[13] = system: MEL-JUSO; assay type: functional, cell-based; details: Homo sapiens;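 also: growth inhibition of human MEL-JUSO cells, read out with a cell viability assay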
Description: SANGER: Inhibition of human MEL-JUSO cell growth in a cell viability assay.

[14] = system: SK-LU-1; assay type: functional, cell-based; details: Homo sapiens;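 also: cell viability assay measuring growth inhibition of human SK-LU-1 cells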
Description: SANGER: Inhibition of human SK-LU-1 cell growth in a cell viability assay.

[15] = system: HCC38; assay type: functional, cell-based; details: Homo sapiens;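 also: cell viability assay on the human HCC38 cell line, with IC50 marking the concentration that inhibits cell growth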
Description: SANGER: Inhibition of human HCC38 cell growth in a cell viability assay.

[16] = system: SW837; assay type: functional, cell-based; details: Homo sapiens;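 also: growth inhibition of SW837 cells, determined with a cell viability assay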
Description: SANGER: Inhibition of human SW837 cell growth in a cell viability assay.

[17] = system: GAMG; assay type: functional, cell-based; details: Homo sapiens;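 also: cell growth inhibition measured by a viability assay in the GAMG human cell line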
Description: SANGER: Inhibition of human GAMG cell growth in a cell viability assay.

[18] = system: ACHN; assay type: functional, cell-based; details: Homo sapiens;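 also: cell viability read-out used to gauge how strongly growth of human ACHN cells is suppressed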
Description: SANGER: Inhibition of human ACHN cell growth in a cell viability assay.

[19] = system: YKG-1; assay type: functional, cell-based; details: Homo sapiens;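 also: cell growth inhibition, read out with a viability assay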
Description: SANGER: Inhibition of human YKG-1 cell growth in a cell viability assay.

[20] = system: NCI-H1755; assay type: functional, cell-based; details: Homo sapiens;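 also: cell viability readout used to measure growth inhibition of NCI-H1755 cells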
Description: SANGER: Inhibition of human NCI-H1755 cell growth in a cell viability assay.

[21] = system: HCC1806; assay type: functional, cell-based; details: Homo sapiens;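 also: growth inhibition of the cancer cell line, determined with a cell viability assay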
Description: SANGER: Inhibition of human HCC1806 cell growth in a cell viability assay.

[22] = system: Capan-2; assay type: functional, cell-based; details: Homo sapiens;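 also: Capan-2 cell growth inhibition, read out with a viability assay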
Description: SANGER: Inhibition of human Capan-2 cell growth in a cell viability assay.

[23] = system: SW1783; assay type: functional, cell-based; details: Homo sapiens;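 also: cell growth inhibition measured with a viability assay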
Description: SANGER: Inhibition of human SW1783 cell growth in a cell viability assay.

[24] = system: A-431; assay type: functional, cell-based; details: Homo sapiens;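 also: growth inhibition of A-431 cells, determined with a cell viability read-out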
Description: SANGER: Inhibition of human A431 cell growth in a cell viability assay.

[25] = system: NCI-H1793; assay type: functional, cell-based; details: Homo sapiens;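 also: cell growth inhibition, read out by a cell viability assay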
Description: SANGER: Inhibition of human NCI-H1793 cell growth in a cell viability assay.

[26] = system: G-361; assay type: functional, cell-based; details: Homo sapiens
[27] = system: D-336MG; assay type: functional, cell-based; details: Homo sapiens
Description: SANGER: Inhibition of human D-336MG cell growth in a cell viability assay.

[28] = system: SK-MEL3; assay type: functional, cell-based, SK-MEL-3; details: Homo sapiens;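 also: growth inhibition of human SK-MEL-3 cells, read out with a cell viability assay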
Description: SANGER: Inhibition of human SK-MEL-3 cell growth in a cell viability assay.

[29] = system: BCPAP; assay type: functional, cell-based; details: Homo sapiens;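 also: growth inhibition of BCPAP cells, read out in a cell viability assay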
Description: SANGER: Inhibition of human BCPAP cell growth in a cell viability assay.

[30] = system: 5637; assay type: functional, cell-based; details: Homo sapiens
Description: SANGER: Inhibition of human 5637 cell growth in a cell viability assay.

[31] = system: LCLC-103H cell line; assay type: functional, cell-based; details: Homo sapiens
Description: SANGER: Inhibition of human LCLC-103H cell growth in a cell viability assay.

[32] = system: KYSE-180; assay type: functional, cell-based; details: Homo sapiens;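 also: growth inhibition of KYSE-180 cells, read out with a cell viability assay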
Description: SANGER: Inhibition of human KYSE-180 cell growth in a cell viability assay.

[33] = system: PC-3; assay type: functional, cell-based; details: Homo sapiens;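 also: cell viability assay measuring growth inhibition of PC-3 cells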
Description: SANGER: Inhibition of human PC-3 cell growth in a cell viability assay.

[34] = system: T47D; assay type: functional, cell-based; details: Homo sapiens;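 also: growth inhibition of human T47D cells, measured with a cell viability assay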
Description: SANGER: Inhibition of human T47D cell growth in a cell viability assay.

[35] = system: Huh-7; assay type: functional, cell-based; details: Homo sapiens;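 also: HuH-7 cell growth inhibition, read out with a cell viability assay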
Description: SANGER: Inhibition of human HuH-7 cell growth in a cell viability assay.

[36] = system: Panc1005; assay type: functional, cell-based; details: Homo sapiens;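 also: growth inhibition of human PANC-10-05 cells, measured by a cell viability assay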
Description: SANGER: Inhibition of human PANC-10-05 cell growth in a cell viability assay.

[37] = system: MDA-MB-175-VII; assay type: functional, cell-based; details: Homo sapiens
[38] = system: H4; assay type: functional, cell-based; details: Homo sapiens
Description: SANGER: Inhibition of human H4 cell growth in a cell viability assay.

[39] = system: A673; assay type: functional, cell-based; details: Homo sapiens;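 also: growth inhibition of human A673 cells, read out through a cell viability assay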
Description: SANGER: Inhibition of human A673 cell growth in a cell viability assay.

[40] = system: NB7; assay type: functional, cell-based; details: Homo sapiens;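 also: growth inhibition of NB7 cells, read out with a cell viability assay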
Description: SANGER: Inhibition of human NB7 cell growth in a cell viability assay.

[41] = system: ChaGo-K-1; assay type: functional, cell-based; details: Homo sapiens;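 also: growth inhibition of ChaGo-K-1 cells, read out with a cell viability assay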
Description: SANGER: Inhibition of human ChaGo-K-1 cell growth in a cell viability assay.

[42] = system: HT1197; assay type: functional, cell-based, HT-1197; details: Homo sapiens
Description: SANGER: Inhibition of human HT-1197 cell growth in a cell viability assay.

[43] = system: CWR22R; assay type: functional, cell-based; details: Homo sapiens, 22Rv1;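 also: growth inhibition of 22Rv1 cells, read out with a cell viability assay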
Description: SANGER: Inhibition of human 22RV1 cell growth in a cell viability assay.

[44] = system: SCC-9; assay type: functional, cell-based; details: Homo sapiens;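 also: Read-out is a cell viability assay, with values giving inhibition of cell growth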
Description: SANGER: Inhibition of human SCC-9 cell growth in a cell viability assay.

[45] = system: BHT-101; assay type: functional, cell-based; details: Homo sapiens
Description: SANGER: Inhibition of human BHT-101 cell growth in a cell viability assay.

[46] = system: NUGC-3; assay type: functional, cell-based; details: Homo sapiens;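 also: growth inhibition of human NUGC-3 cells, read out with a cell viability assay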
Description: SANGER: Inhibition of human NUGC-3 cell growth in a cell viability assay.

[47] = system: MKN-28; assay type: functional, cell-based; details: Homo sapiens;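 also: cell viability assay read-out, IC50 reflects suppression of growth of human MKN-28 cells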
Description: SANGER: Inhibition of human MKN28 cell growth in a cell viability assay.

[48] = system: LoVo; assay type: functional, cell-based; details: Homo sapiens;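 also: growth inhibition of human LoVo cells, read out with a cell viability assay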
Description: SANGER: Inhibition of human LoVo cell growth in a cell viability assay.

[49] = system: FaDu; assay type: functional, cell-based; details: Homo sapiens;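 also: cell viability readout of growth inhibition in FaDu cells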
Description: SANGER: Inhibition of human FADU cell growth in a cell viability assay.

[50] = system: RT-112; assay type: functional, cell-based; details: Homo sapiens
Description: SANGER: Inhibition of human RT-112 cell growth in a cell viability assay.

[51] = system: C-33-A; assay type: functional, cell-based; details: Homo sapiens;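 also: cell viability assay measuring growth inhibition of C-33-A cells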
Description: SANGER: Inhibition of human C-33-A cell growth in a cell viability assay.

Molecule `C[C@]1(c2nc3c(C(N)=O)cccc3[nH]2)CCCN1` [VELIPARIB] has an IC50 [1] of over 5000 nM, an IC50 [2] of over 5000 nM and an IC50 [3] of over 5000 nM. The IC50 [4] was over 5000 nM, the IC50 [5] was over 5000 nM and the IC50 [6] was over 5000 nM. The IC50 [7] was over 5000 nM, the IC50 [8] was over 5000 nM and the IC50 [9] was over 5000 nM. The IC50 [10] was over 5000 nM, the IC50 [11] was over 5000 nM and the IC50 [12] was over 5000 nM. It also gave an IC50 [13] of over 5000 nM, an IC50 [14] of over 5000 nM and an IC50 [15] of over 5000 nM. It also gave an IC50 [16] of over 5000 nM, an IC50 [17] of over 5000 nM and an IC50 [18] of over 5000 nM. It also gave an IC50 [19] of over 5000 nM, an IC50 [20] of over 5000 nM and an IC50 [21] of over 5000 nM. It also gave an IC50 [22] of over 5000 nM, an IC50 [23] of over 5000 nM and an IC50 [24] of over 5000 nM. The IC50 [25] was over 5000 nM, the IC50 [26] was over 5000 nM and the IC50 [27] was over 5000 nM. It also gave an IC50 [28] of over 5000 nM, an IC50 [29] of over 5000 nM and an IC50 [30] of over 5000 nM. For the same molecule, the IC50 [31] was over 5000 nM, the IC50 [32] was over 5000 nM and the IC50 [33] was over 5000 nM. It also gave an IC50 [34] of over 5000 nM, an IC50 [35] of over 5000 nM and an IC50 [36] of over 5000 nM. It also gave an IC50 [37] of over 5000 nM, an IC50 [38] of over 5000 nM and an IC50 [39] of over 5000 nM. For the same molecule, the IC50 [40] was over 5000 nM, the IC50 [41] was over 5000 nM and the IC50 [42] was over 5000 nM. It also gave an IC50 [43] of over 5000 nM, an IC50 [44] of over 5000 nM and an IC50 [45] of over 5000 nM. For the same molecule, the IC50 [46] was over 5000 nM, the IC50 [47] was over 5000 nM and the IC50 [48] was over 5000 nM. It also gave an IC50 [49] of over 5000 nM, an IC50 [50] of over 5000 nM and an IC50 [51] of over 5000 nM.

`COc1cc(Nc2c(C#N)cnc3cc(OCCCN4CCN(C)CC4)c(OC)cc23)c(Cl)cc1Cl` [BOSUTINIB] was tested, and the IC50 [1] was over 2000 nM, the IC50 [2] was over 2000 nM and the IC50 [3] was 1190 nM. The IC50 [4] was over 2000 nM, the IC50 [5] was over 2000 nM and the IC50 [6] was over 2000 nM. It also gave an IC50 [7] of over 2000 nM, an IC50 [8] of over 2000 nM and an IC50 [9] of over 2000 nM. For the same molecule, the IC50 [10] was over 2000 nM, the IC50 [11] was over 2000 nM and the IC50 [12] was over 2000 nM. For the same molecule, the IC50 [13] was over 2000 nM, the IC50 [14] was over 2000 nM and the IC50 [15] was over 2000 nM. For the same molecule, the IC50 [16] was over 2000 nM, the IC50 [17] was over 2000 nM and the IC50 [18] was 541 nM. The IC50 [19] was over 2000 nM, the IC50 [20] was over 2000 nM and the IC50 [21] was 352 nM. The IC50 [22] was over 2000 nM, the IC50 [23] was over 2000 nM and the IC50 [24] was over 2000 nM. For the same molecule, the IC50 [25] was over 2000 nM, the IC50 [26] was over 2000 nM and the IC50 [27] was over 2000 nM. For the same molecule, the IC50 [28] was over 2000 nM, the IC50 [29] was over 2000 nM and the IC50 [30] was 1140 nM. It also gave an IC50 [31] of over 2000 nM, an IC50 [32] of over 2000 nM and an IC50 [33] of over 2000 nM. For the same molecule, the IC50 [34] was over 2000 nM, the IC50 [35] was over 2000 nM and the IC50 [36] was over 2000 nM. The IC50 [37] was over 2000 nM, the IC50 [38] was 1240 nM and the IC50 [39] was over 2000 nM. For the same molecule, the IC50 [40] was 82.3 nM, the IC50 [41] was over 2000 nM and the IC50 [42] was over 2000 nM. The IC50 [43] was over 2000 nM, the IC50 [44] was over 2000 nM and the IC50 [45] was 466 nM. The IC50 [46] was 1290 nM, the IC50 [47] was over 2000 nM and the IC50 [48] was 1980 nM. It also gave an IC50 [49] of over 2000 nM, an IC50 [50] of over 2000 nM and an IC50 [51] of over 2000 nM.

In the case of `C[C@]12O[C@H](C[C@]1(O)CO)n1c3ccccc3c3c4c(c5c6ccccc6n2c5c31)CNC4=O` [LESTAURTINIB], the IC50 [1] is reported as 50.6 nM, the IC50 [2] is reported as over 2000 nM and the IC50 [3] is reported as 730 nM. It also gave an IC50 [4] of 1620 nM, an IC50 [5] of 1500 nM and an IC50 [6] of 1810 nM. The IC50 [7] was over 2000 nM, the IC50 [8] was 666 nM and the IC50 [9] was over 2000 nM. The IC50 [10] was 958 nM, the IC50 [11] was over 2000 nM and the IC50 [12] was 561 nM. It also gave an IC50 [13] of 503 nM, an IC50 [14] of 256 nM and an IC50 [15] of over 2000 nM. It also gave an IC50 [16] of over 2000 nM, an IC50 [17] of 382 nM and an IC50 [18] of 104 nM. The IC50 [19] was 325 nM, the IC50 [20] was 185 nM and the IC50 [21] was 127 nM. It also gave an IC50 [22] of over 2000 nM, an IC50 [23] of 1600 nM and an IC50 [24] of 387 nM. It also gave an IC50 [25] of over 2000 nM, an IC50 [26] of 221 nM and an IC50 [27] of 193 nM. The IC50 [28] was 160 nM, the IC50 [29] was 970 nM and the IC50 [30] was 82.1 nM. For the same molecule, the IC50 [31] was over 2000 nM, the IC50 [32] was over 2000 nM and the IC50 [33] was 1710 nM. It also gave an IC50 [34] of over 2000 nM, an IC50 [35] of over 2000 nM and an IC50 [36] of over 2000 nM. The IC50 [37] was 1140 nM, the IC50 [38] was 13.5 nM and the IC50 [39] was 718 nM. For the same molecule, the IC50 [40] was 899 nM, the IC50 [41] was 1960 nM and the IC50 [42] was over 2000 nM. It also gave an IC50 [43] of 1400 nM, an IC50 [44] of 1210 nM and an IC50 [45] of 464 nM. The IC50 [46] was over 2000 nM, the IC50 [47] was over 2000 nM and the IC50 [48] was 31.9 nM. It also gave an IC50 [49] of 648 nM, an IC50 [50] of 464 nM and an IC50 [51] of over 2000 nM.
